In patent publication US10160755B2 (Plexxikon Inc., priority 2015, dated 2018) one finds GI50 data, which are given here for 25 compounds.

The target in this test is T1, BA/F3-FLT3-ITD + F691L cells (Homo sapiens, UniProt P36888, F691L, cells depend on it, form not given).
T1 sequence (P36888 1-993 F691L): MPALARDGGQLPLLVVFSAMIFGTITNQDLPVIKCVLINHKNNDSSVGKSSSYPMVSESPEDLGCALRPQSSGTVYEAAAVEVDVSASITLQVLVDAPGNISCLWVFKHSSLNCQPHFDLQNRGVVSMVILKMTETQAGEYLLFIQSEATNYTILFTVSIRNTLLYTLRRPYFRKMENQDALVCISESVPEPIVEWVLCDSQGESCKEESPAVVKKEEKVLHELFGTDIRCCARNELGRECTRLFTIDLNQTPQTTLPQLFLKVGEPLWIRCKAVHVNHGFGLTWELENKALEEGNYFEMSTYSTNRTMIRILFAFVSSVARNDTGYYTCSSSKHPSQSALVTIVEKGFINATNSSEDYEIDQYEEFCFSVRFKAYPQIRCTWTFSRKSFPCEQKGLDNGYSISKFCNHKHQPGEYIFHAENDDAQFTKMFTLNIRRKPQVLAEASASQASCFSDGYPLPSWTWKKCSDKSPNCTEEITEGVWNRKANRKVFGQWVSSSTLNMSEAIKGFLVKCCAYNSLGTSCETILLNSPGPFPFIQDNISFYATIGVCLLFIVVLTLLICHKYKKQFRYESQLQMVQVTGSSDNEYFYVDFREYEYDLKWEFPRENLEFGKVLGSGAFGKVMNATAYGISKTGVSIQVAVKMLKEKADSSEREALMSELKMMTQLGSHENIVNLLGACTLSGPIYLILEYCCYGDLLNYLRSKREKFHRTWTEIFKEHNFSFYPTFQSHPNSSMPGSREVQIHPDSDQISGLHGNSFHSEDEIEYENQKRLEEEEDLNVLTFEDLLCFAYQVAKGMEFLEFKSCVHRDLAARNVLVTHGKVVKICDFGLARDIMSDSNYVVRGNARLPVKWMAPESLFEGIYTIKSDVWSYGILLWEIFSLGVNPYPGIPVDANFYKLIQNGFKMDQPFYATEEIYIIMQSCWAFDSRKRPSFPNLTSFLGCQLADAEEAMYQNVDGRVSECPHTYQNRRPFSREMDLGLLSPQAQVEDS
Put plainly: BA/F3-FLT3-ITD + F691L cell proliferation assay (CellTiter-Glo). In kind it is cell-based, murine. The note with it: BaF3 FLT3 ITD/F691L cells; read-out: Cell Activity (IC50 μM) BaF3_FLT3_ITD/F691L. Summed up: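 Murine BA/F3 cells transfected with full-length FLT3 carrying ITD plus D835Y or F691L, grown without IL-3 so growth depends on FLT3. Seeded at 1×10^4 cells/well and dosed with 8 points, 10 to 0.0046 μM, 0.2% DMSO, for three days at 37 °C. IC50 from CellTiter-Glo luminescence (ATP content).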
As to `Cc1ncc(C#Cc2cnc3[nH]cc(-c4ccc5ncn(C6CCCNC6)c5c4)c3n2)cn1` (stereo not shown) [P-285, 2-[2-(2-methylpyrimidin-5-yl)ethynyl]-7-[3-(3-piperidyl)benzimidazol-5-yl]-5H-pyrrolo[2,3-b]pyrazine], the GI50 fell in the range of 0.0001 to 1 µM. Next, `c1cc(N2CCOCC2)ncc1-c1cnc2[nH]cc(-c3ccc4ncn(C5CCCNC5)c4c3)c2c1` (stereo not shown) [P-321, 4-[5-[3-[3-(3-piperidyl)benzimidazol-5-yl]-1H-pyrrolo[2,3-b]pyridin-5-yl]-2-pyridyl]morpholine]: 0.0001 to 1 µM. In the case of `O=S1(=O)CCCN1c1ccc(-c2cnc3[nH]cc(-c4ccc5ncn(C6CCCNC6)c5c4)c3c2)cc1` (stereo not shown) [P-319, 2-[4-[3-[3-(3-piperidyl)benzimidazol-5-yl]-1H-pyrrolo[2,3-b]pyridin-5-yl]phenyl]-1,2-thiazolidine 1,1-dioxide] it was 0.0001 to 1 µM. In the case of `c1cc(-c2cnc3[nH]cc(-c4ccc5ncn(C6CCCNC6)c5c4)c3c2)cc(N2CCOCC2)c1` (stereo not shown) [P-317, 4-[3-[3-[3-(3-piperidyl)benzimidazol-5-yl]-1H-pyrrolo[2,3-b]pyridin-5-yl]phenyl]morpholine] it was 0.0001 to 1 µM; in that of `CC(C)(C)n1cnc2ccc(-c3c[nH]c4ncc(-c5ccc(N6CCCS6(=O)=O)cc5)cc34)cc21` [P-320, 2-[4-[3-(3-tert-butylbenzimidazol-5-yl)-1H-pyrrolo[2,3-b]pyridin-5-yl]phenyl]-1,2-thiazolidine 1,1-dioxide], 0.0001 to 1 µM; in that of `COc1ncc(-c2cnc3[nH]cc(-c4ccc5ncn(C6CCCNC6)c5c4)c3c2)cn1` (stereo not shown) [P-276, 5-(2-methoxypyrimidin-5-yl)-3-[3-(3-piperidyl)benzimidazol-5-yl]-1H-pyrrolo[2,3-b]pyridine], 10 to 200 µM. On to `CC(C)(C)n1cnc2ccc(-c3c[nH]c4ncc(-c5ccc(N6CCCCC6)cc5)nc34)cc21` [P-345, 7-(3-tert-butylbenzimidazol-5-yl)-2-[4-(1-piperidyl)phenyl]-5H-pyrrolo[2,3-b]pyrazine], for which the GI50 lay in the range of 0.0001 to 1 µM. Consider `CN1CCN(c2cccc(-c3cnc4[nH]cc(-c5ccc6ncn(C7CCCNC7)c6c5)c4n3)c2)CC1` (stereo not shown) [P-332, 2-[3-(4-methylpiperazin-1-yl)phenyl]-7-[3-(3-piperidyl)benzimidazol-5-yl]-5H-pyrrolo[2,3-b]pyrazine], for which the GI50 is 0.0001 to 1 µM.

Turning to `O=S1(=O)CCCN1c1cc(-c2cnc3[nH]cc(-c4ccc5ncn(C6CCCNC6)c5c4)c3n2)ccn1` (stereo not shown) [P-295, 2-[4-[7-[3-(3-piperidyl)benzimidazol-5-yl]-5H-pyrrolo[2,3-b]pyrazin-2-yl]-2-pyridyl]-1,2-thiazolidine 1,1-dioxide], the GI50 fell in the range of 0.0001 to 1 µM. Turning to `c1cc(N2CCCCC2)ncc1-c1cnc2[nH]cc(-c3ccc4ncn(C5CCCNC5)c4c3)c2n1` (stereo not shown) [P-348, 7-[3-(3-piperidyl)benzimidazol-5-yl]-2-[6-(1-piperidyl)-3-pyridyl]-5H-pyrrolo[2,3-b]pyrazine], the GI50 was 0.0001 to 1 µM. Next, `Cc1ncc(C#Cc2cnc3[nH]cc(-c4ccc5ncn(C(C)(C)C)c5c4)c3n2)cn1` [P-284, 7-(3-tert-butylbenzimidazol-5-yl)-2-[2-(2-methylpyrimidin-5-yl)ethynyl]-5H-pyrrolo[2,3-b]pyrazine]: 0.0001 to 1 µM; `c1nc(N2CCOCC2)ncc1-c1cnc2[nH]cc(-c3ccc4ncn(C5CCCNC5)c4c3)c2c1` (stereo not shown) [P-277, 4-[5-[3-[3-(3-piperidyl)benzimidazol-5-yl]-1H-pyrrolo[2,3-b]pyridin-5-yl]pyrimidin-2-yl]morpholine]: 0.0001 to 1 µM; `CC(C)(C)n1cnc2ccc(-c3c[nH]c4ncc(-c5ccnc(N6CCCCS6(=O)=O)c5)nc34)cc21` [P-309, 2-[4-[7-(3-tert-butylbenzimidazol-5-yl)-5H-pyrrolo[2,3-b]pyrazin-2-yl]-2-pyridyl]thiazinane 1,1-dioxide]: 0.0001 to 1 µM. Next, `CCN1CCN(c2cccc(-c3cnc4[nH]cc(-c5ccc6ncn(C7CCCNC7)c6c5)c4n3)c2)CC1` (stereo not shown) [P-329, 2-[3-(4-ethylpiperazin-1-yl)phenyl]-7-[3-(3-piperidyl)benzimidazol-5-yl]-5H-pyrrolo[2,3-b]pyrazine]: 0.0001 to 1 µM. `CC(C)(C)n1cnc2ccc(-c3c[nH]c4ncc(-c5ccnc(C#N)c5)cc34)cc21` [P-291, 4-[3-(3-tert-butylbenzimidazol-5-yl)-1H-pyrrolo[2,3-b]pyridin-5-yl]pyridine-2-carbonitrile]: the GI50 fell in the range of 0.0001 to 1 µM. In the case of `CC(C)(C)n1cnc2ccc(-c3c[nH]c4ncc(-c5ccc(N6CCOCC6)nc5)nc34)cc21` [P-326, 4-[5-[7-(3-tert-butylbenzimidazol-5-yl)-5H-pyrrolo[2,3-b]pyrazin-2-yl]-2-pyridyl]morpholine] it was 0.0001 to 1 µM; in that of `Cn1cnc2ccc(-c3c[nH]c4nnc(Cl)cc34)cc21` [P-313, 3-chloro-5-(3-methylbenzimidazol-5-yl)-7H-pyrrolo[2,3-c]pyridazine], 0.0001 to 1 µM; in that of `CC(C)(C)n1cnc2ccc(-c3c[nH]c4ncc(-c5ccc(C#N)nc5)cc34)cc21` [P-290, 5-[3-(3-tert-butylbenzimidazol-5-yl)-1H-pyrrolo[2,3-b]pyridin-5-yl]pyridine-2-carbonitrile], 0.0001 to 1 µM. On to `c1cc(-c2cnc3[nH]cc(-c4ccc5ncn(C6CCCNC6)c5c4)c3n2)cc(N2CCCCC2)n1` (stereo not shown) [P-339, 7-[3-(3-piperidyl)benzimidazol-5-yl]-2-[2-(1-piperidyl)-4-pyridyl]-5H-pyrrolo[2,3-b]pyrazine], for which the GI50 lay in the range of 0.0001 to 1 µM. Consider `O=S1(=O)CCCN1c1cc(-c2cnc3[nH]cc(-c4ccc5ncn(C6CCCNC6)c5c4)c3c2)ccn1` (stereo not shown) [P-311, 2-[4-[3-[3-(3-piperidyl)benzimidazol-5-yl]-1H-pyrrolo[2,3-b]pyridin-5-yl]-2-pyridyl]-1,2-thiazolidine 1,1-dioxide], for which the GI50 was in the range of 0.0001 to 1 µM. Next, `CCN1CCN(c2ccc(-c3cnc4[nH]cc(-c5ccc6ncn(C7CCCNC7)c6c5)c4n3)cn2)CC1` (stereo not shown) [P-366, 2-[6-(4-ethylpiperazin-1-yl)-3-pyridyl]-7-[3-(3-piperidyl)benzimidazol-5-yl]-5H-pyrrolo[2,3-b]pyrazine]: 0.0001 to 1 µM; `CCN1CCN(c2ccc(-c3cnc4[nH]cc(-c5ccc6ncn(C(C)(C)C)c6c5)c4n3)cc2)CC1` [P-358, 7-(3-tert-butylbenzimidazol-5-yl)-2-[4-(4-ethylpiperazin-1-yl)phenyl]-5H-pyrrolo[2,3-b]pyrazine]: 0.0001 to 1 µM. In the case of `CC(C)(C)n1cnc2ccc(-c3c[nH]c4ncc(-c5cccc(N6CCOCC6)c5)cc34)cc21` [P-316, 4-[3-[3-(3-tert-butylbenzimidazol-5-yl)-1H-pyrrolo[2,3-b]pyridin-5-yl]phenyl]morpholine] it was 0.0001 to 1 µM. In the case of `CC(C)(C)n1cnc2ccc(-c3n[nH]c4ncc(-c5ccnc(N6CCOCC6)c5)cc34)cc21` [P-297, 4-[4-[3-(3-tert-butylbenzimidazol-5-yl)-1H-pyrazolo[3,4-b]pyridin-5-yl]-2-pyridyl]morpholine] it was 0.0001 to 1 µM; in that of `c1cc(N2CCOCC2)ncc1-c1cnc2[nH]cc(-c3ccc4ncn(C5CCCNC5)c4c3)c2n1` (stereo not shown) [P-325, 4-[5-[7-[3-(3-piperidyl)benzimidazol-5-yl]-5H-pyrrolo[2,3-b]pyrazin-2-yl]-2-pyridyl]morpholine], 0.0001 to 1 µM.
